Columns and labels:
[1] = tested on: wheat; test: Test A preemergence; format: in vivo, Triticum aestivum; conditions: preemergence
Procedure, shortened: (§1)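 Visual injury ratings, 0 = no effect to 100 = complete control, taken about 10 days after treatment against untreated controls. Test chemicals, in a non-phytotoxic surfactant-containing solvent, were sprayed onto soil preemergence or onto one- to two-leaf plants (2–10 cm) postemergence, in loam–sand soil under greenhouse conditions.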

[2] = tested on: crabgrass, large; test: Test A postemergence; format: in vivo, Digitaria sanguinalis
Procedure, shortened: as §1

[3] = tested on: foxtail, giant; test: Test A postemergence; format: in vivo, Setaria faberii
Procedure, shortened: as §1

[4] = tested on: morningglory; test: Test A postemergence; format: in vivo, Ipomoea spp.
Procedure, shortened: as §1

[5] = tested on: velvetleaf; test: Test A postemergence; format: in vivo, Abutilon theophrasti
Procedure, shortened: as §1

[6] = tested on: corn; test: Test A postemergence; format: in vivo, Zea mays
Procedure, shortened: as §1

[7] = tested on: pigweed; test: Test C preemergence; format: in vivo, Amaranthus retroflexus
Procedure, shortened: (§2)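 Postemergence values come from plants sprayed at the 1- to 4-leaf stage (2–18 cm) in peat moss–vermiculite medium; preemergence values from seeds treated in a loam–sand blend. Both evaluated visually against controls after 13–15 greenhouse days, scale 0–100.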

[8] = tested on: ragweed; test: Test C preemergence; format: in vivo, Ambrosia elation
Procedure, shortened: as §2

[9] = tested on: soybean; test: Test C preemergence; format: in vivo, Glycine max
Procedure, shortened: as §2

[10] = tested on: oilseed rape; test: Test C preemergence; format: in vivo, Brassica napus
Procedure, shortened: as §2

[11] = tested on: wheat; test: Test C postemergence; format: in vivo, Triticum aestivum; conditions: for Wheat plant response rating / Plant response rating, Wheat: postemergence; for Wheat plant response rating: scale 0 to 100
Procedure, shortened: as §2

[12] = tested on: corn; test: Test C postemergence; format: in vivo, Zea mays; conditions: for Plant response rating (scale of 0 to 100 where 0 is no effect and 100 is complete control), Corn: Postemergence, 31 g ai/ha, visually evaluated after 13 to 15 days; for Corn plant response rating / Plant response rating, Corn: postemergence; for Corn plant response rating: 62 g ai/ha, scale 0 to 100
Procedure, shortened: as §2

[13] = tested on: lambsquarters; test: Test C postemergence; format: in vivo, Chenopodium album; conditions: for Plant response rating (scale of 0 to 100 where 0 is no effect and 100 is complete control), Lambsquarters: Postemergence, 31 g ai/ha, visually evaluated after 13 to 15 days; for Lambsquarters plant response rating / Plant response rating, Lambsquarters: postemergence; for Lambsquarters plant response rating: 62 g ai/ha, scale 0 to 100
Procedure, shortened: as §2

[14] = tested on: ragweed; test: Test C postemergence; format: in vivo, Ambrosia elation
Procedure, shortened: as §2

[15] = tested on: soybean; test: Test C postemergence; format: in vivo, Glycine max; conditions: for Soybean plant response rating / Plant response rating, Soybean: postemergence
Procedure, shortened: as §2

[16] = tested on: waterhemp; test: Test C postemergence; format: in vivo, Amaranthus rudis; conditions: for Waterhemp plant response rating / Plant response rating, Waterhemp: postemergence; for Waterhemp plant response rating: scale 0 to 100
Procedure, shortened: as §2

[17] = tested on: velvetleaf; test: Test C postemergence; format: in vivo, Abutilon theophrasti; conditions: for Velvetleaf plant response rating / Plant response rating, Velvetleaf: postemergence; for Velvetleaf plant response rating: scale 0 to 100
Procedure, shortened: as §2

[18] = 500 g ai/ha, visual injury after approx. 10 days, 0 to 100 scale (0 no effect, 100 complete control)
[19] = Postemergence, 500 g ai/ha, visual rating after approx. 10 days, 0 to 100 scale (0 no effect, 100 complete control)
[20] = postemergence, 125 g ai/ha, about 10 days, visual rating on 0 to 100 scale (0 no effect, 100 complete control)
[21] = preemergence, 31 g ai/ha, visual rating, scale 0 to 100 (0 no effect, 100 complete control), 13 to 15 days
[22] = preemergence, 62 g ai/ha, scale 0 to 100 (0 no effect, 100 complete control), 13 to 15 days
[23] = preemergence, 125 g ai/ha, scale 0 to 100, 0 is no effect, 100 is complete control
[24] = Postemergence, 31 g ai/ha, visually evaluated after 13 to 15 days
[25] = 250 g ai/ha, scale 0 to 100 (0 no effect, 100 complete control)
[26] = 125 g ai/ha, scale 0 to 100, 0 no effect, 100 complete control
[27] = postemergence, 250 g ai/ha, scale 0 to 100 (0 no effect, 100 complete control)
[28] = postemergence, 125 g ai/ha, scale 0 to 100, 0 no effect, 100 complete control
[29] = Postemergence, 500 g ai/ha, 0 to 100 scale (0 no effect, 100 complete control)
[30] = Postemergence, 125 g ai/ha, 0 to 100 scale, 0 no effect, 100 complete control
[31] = preemergence, 125 g ai/ha, 13 to 15 days, scale 0 to 100, 0 = no effect, 100 = complete control
[32] = preemergence, 250 g ai/ha, scale 0 to 100, 0 is no effect, 100 is complete control

## CCc1cc(C(=O)NCC(F)(F)F)nn1Cc1nc(C(F)(F)F)nn1C [Compound 107]
[1]; 125 g ai/ha, visual injury, 0 to 100 scale, approx. 10 days
  Wheat plant response rating: 10
[1]; [18]
  Wheat plant response rating: 90
[2]; [19]
  Crabgrass, Large plant response rating: 90
[2]; [20]
  Crabgrass, Large plant response rating: 80
[3]; [19]
  Foxtail, Giant plant response rating: 90
[3]; [20]
  Foxtail, Giant plant response rating: 70
[4]; [19]
  Morningglory plant response rating: 100
[4]; [20]
  Morningglory plant response rating: 90
[5]; [19]
  Velvetleaf plant response rating: 100
[5]; [20]
  Velvetleaf plant response rating: 80
[6]; [19]
  Corn plant response rating: 90
[6]; [20]
  Corn plant response rating: 50
[7]; Preemergence, 250 g ai/ha
  Plant response rating (scale of 0 to 100), Pigweed: 100
[7]; [21]
  Pigweed plant response rating: 100
[7]; [22]
  Pigweed plant response rating: 100
[7]; [23]
  Pigweed plant response rating: 100
[8]; Preemergence, 250 g ai/ha
  Plant response rating (scale of 0 to 100), Ragweed: 100
[8]; [21]
  Ragweed plant response rating: 50
[8]; [22]
  Ragweed plant response rating: 98
[8]; [23]
  Ragweed plant response rating: 100
[9]; Preemergence, 250 g ai/ha
  Plant response rating (scale of 0 to 100), Soybean: 95
[9]; [21]
  Soybean plant response rating: 15
[9]; [22]
  Soybean plant response rating: 95
[9]; [23]
  Soybean plant response rating: 95
[10]; Preemergence, 250 g ai/ha
  Plant response rating (scale of 0 to 100), Oilseed Rape: 100
[10]; [21]
  Oilseed Rape plant response rating: 98
[10]; [22]
  Oilseed Rape plant response rating: 100
[10]; [23]
  Oilseed Rape plant response rating: 100
[11]; [24]
  Plant response rating (scale of 0 to 100 where 0 is no effect and 100 is complete control), Wheat: 0
[11]; 62 g ai/ha
  Wheat plant response rating: 5
[11]; [25]
  Plant response rating, Wheat: 30
[11]; [26]
  Plant response rating, Wheat: 20
[12]
  Plant response rating (scale of 0 to 100 where 0 is no effect and 100 is complete control), Corn: 5
  Corn plant response rating: 5
[12]; [25]
  Plant response rating, Corn: 40
[12]; [26]
  Plant response rating, Corn: 5
[13]
  Plant response rating (scale of 0 to 100 where 0 is no effect and 100 is complete control), Lambsquarters: 40
  Lambsquarters plant response rating: 40
[13]; [25]
  Plant response rating, Lambsquarters: 90
[13]; [26]
  Plant response rating, Lambsquarters: 70
[14]; [24]
  Plant response rating (scale of 0 to 100 where 0 is no effect and 100 is complete control), Ragweed: 10
[14]; postemergence, 62 g ai/ha, scale 0 to 100
  Ragweed plant response rating: 65
[14]; [27]
  Plant response rating, Ragweed: 90
[14]; [28]
  Plant response rating, Ragweed: 85
[15]; [24]
  Plant response rating (scale of 0 to 100 where 0 is no effect and 100 is complete control), Soybean: 20
[15]; 62 g ai/ha, scale 0 to 100
  Soybean plant response rating: 50
[15]; [25]
  Plant response rating, Soybean: 90
[15]; [26]
  Plant response rating, Soybean: 50
[16]; [24]
  Plant response rating (scale of 0 to 100 where 0 is no effect and 100 is complete control), Waterhemp: 5
[16]; 62 g ai/ha
  Waterhemp plant response rating: 40
[16]; [25]
  Plant response rating, Waterhemp: 80
[16]; [26]
  Plant response rating, Waterhemp: 40
[17]; [24]
  Plant response rating (scale of 0 to 100 where 0 is no effect and 100 is complete control), Velvetleaf: 30
[17]; 62 g ai/ha
  Velvetleaf plant response rating: 30
[17]; [25]
  Plant response rating, Velvetleaf: 50
[17]; [26]
  Plant response rating, Velvetleaf: 35

## CCCc1cc(C(=O)NC(C)C)nn1Cc1cc(C(F)(F)F)nn1C [Compound 201]
[1]; 125 g ai/ha, visual injury approx. 10 days after treatment
  Wheat plant response rating (0 to 100 scale): 80
[1]; [18]
  Wheat plant response rating: 100
[2]; [29]
  Crabgrass, Large plant response rating: 100
[2]; [20]
  Crabgrass, Large plant response rating: 90
[3]; [29]
  Foxtail, Giant plant response rating: 100
[3]; [20]
  Foxtail, Giant plant response rating: 90
[4]; [30]
  Morningglory plant response rating: 90
[4]; [29]
  Morningglory plant response rating: 100
[5]; [30]
  Velvetleaf plant response rating: 70
[5]; [29]
  Velvetleaf plant response rating: 100
[6]; [29]
  Corn plant response rating: 100
[6]; [20]
  Corn plant response rating: 90
[7]; [21]
  Pigweed plant response rating: 100
[7]; [22]
  Pigweed plant response rating: 100
[7]; [31]
  Plant response rating, Pigweed: 98
[7]; [32]
  Pigweed plant response rating: 98
[8]; [21]
  Ragweed plant response rating: 80
[8]; [22]
  Ragweed plant response rating: 85
[8]; [31]
  Plant response rating, Ragweed: 95
[8]; [32]
  Ragweed plant response rating: 98
[9]; [21]
  Soybean plant response rating: 70
[9]; [22]
  Soybean plant response rating: 85
[9]; [31]
  Plant response rating, Soybean: 95
[9]; [32]
  Soybean plant response rating: 98
[10]; [21]
  Oilseed Rape plant response rating: 100
[10]; [22]
  Oilseed Rape plant response rating: 100
[10]; [31]
  Plant response rating, Oilseed Rape: 100
[10]; [32]
  Oilseed Rape plant response rating: 95
[11]; [25]
  Plant response rating, Wheat: 10
[11]
  Wheat plant response rating: 5
[12]
  Plant response rating (scale of 0 to 100 where 0 is no effect and 100 is complete control), Corn: 10
  Corn plant response rating: 10
[12]; [25]
  Plant response rating, Corn: 60
[12]; [26]
  Plant response rating, Corn: 15
[13]
  Plant response rating (scale of 0 to 100 where 0 is no effect and 100 is complete control), Lambsquarters: 65
  Lambsquarters plant response rating: 80
[13]; [25]
  Plant response rating, Lambsquarters: 95
[13]; [26]
  Plant response rating, Lambsquarters: 90
[14]; [27]
  Plant response rating, Ragweed: 85
[14]; [28]
  Plant response rating, Ragweed: 60
[15]; [25]
  Plant response rating, Soybean: 98
[15]; [26]
  Soybean plant response rating: 95
[16]; [25]
  Plant response rating, Waterhemp: 85
[16]
  Waterhemp plant response rating: 70
[17]; [25]
  Plant response rating, Velvetleaf: 80
[17]
  Velvetleaf plant response rating: 60

Reference: US20150105252A1, “SUBSTITUTED PYRAZOLES AS HERBICIDES” (E I DU PONT DE NEMOURS AND COMPANY, priority 2013, published 2015)
